Data published in article PMC8657793, “Synthesis, In Vitro and In Silico Anticancer Activity of New 4-Methylbenzamide Derivatives Containing 2,6-Substituted Purines as Potential Protein Kinases Inhibitors” (International Journal of Molecular Sciences, 2021).
“And” between values parts separate entries of the source, which are not always exact repeats. Identical values can stand only once.

Assays:
Bcr–Abl1 kinase = biological target: T1, Bcr–Abl1 kinase (Homo sapiens, UniProt P00519); assay: Abl1 Kinase Enzyme System / ADP-Glo kinase assay; type: biochemical; conditions: ATP 50 μM; for inhibition at 0.5 µM: 0.5 µM compound; for inhibition at 10 µM: 10 µM compound
T1 construct: purchased Promega
Procedure: (§1) At the end, 10 μL of kinase detection reagent was added into the well and incubated for 30 min to produce a luminescence signal.

IGF1R = biological target: T2, IGF1R (Homo sapiens, UniProt P08069); assay: Kinase Selectivity Profiling System TK-1 / ADP-Glo, IGF1R; type: biochemical
T2 construct: purchased Promega
Procedure: as §1

EGFR = biological target: T3, EGFR (Homo sapiens, UniProt P00533); assay: Kinase Selectivity Profiling System TK-1 / ADP-Glo, EGFR; type: biochemical
T3 construct: purchased Promega
Procedure: as §1

HER4 = biological target: T4, HER4 (Homo sapiens, UniProt Q15303); assay: Kinase Selectivity Profiling System TK-1 / ADP-Glo, HER4; type: biochemical
T4 construct: purchased Promega
Procedure: as §1

InsR = biological target: T5, InsR (Homo sapiens, UniProt P06213); assay: Kinase Selectivity Profiling System TK-1 / ADP-Glo, InsR; type: biochemical
T5 construct: purchased Promega
Procedure: as §1

OKP-GS cells = assay: Cell cycle distribution, propidium iodide staining, flow cytometry; type: cell-based, human; conditions: 72 h
Procedure: To assess changes in the distribution of cells by phases of the cell cycle, we used the method of staining fixed samples with propidium iodide (Calbiochem, USA). Pre-fixation of cells was carried out with 70% ethanol for […]. To exclude the binding of propidium iodide to RNA, the fixed samples were treated with RNAse A at a final concentration of 50 μg/mL (R4875, Sigma, St. Louis, MI, USA) for 15 min at 37 °C [34, 35].
Tumor cells were seeded on a 6-well plate at a density of 200.000 per well for HL-60 and 100.000 per well for OKP-GS. Test compounds 7 and 10 were added at concentrations of 5, 10, and 20 μM for 72 h. Then, the cells were washed from the culture medium by centrifugation at 1000 rpm for 5 min, washed again with PBS, then fixed with ice-cold ethanol during constant shaking and incubated at −20 °C for 24 h. After that, we washed it from alcohol by centrifugation, washed it again with PBS and added a solution containing 100 μg/mL RNase A and 10 μg/mL propidium iodide (PI), incubated for 40 min in the dark and measure it on a Cytomics FC500 Beckman Coulter flow cytometer (FL4 channel for PI). Received data were analyzed with the help of Kaluza 2.0 Software (Beckman Coulter, Brea, CA, USA).

KDR (VEGFR-2) = biological target: T6, KDR (VEGFR-2) (Homo sapiens, UniProt P35968); assay: Kinase Selectivity Profiling System TK-1 / ADP-Glo, KDR; type: biochemical
T6 construct: purchased Promega
Procedure: as §1

HeLa (cervix carcinoma) = assay: MTT anti-proliferative assay, HeLa; type: cell-based; conditions: Homo sapiens, 48 h
Procedure: (§2) To determine the selectivity of the synthesized compounds 7–16 toward various cancer cells and normal human cells, the anti-proliferative activity against K562 (chronic myelogenous leukemia), HL-60 (promyelocytic leukemia), MCF-7 (breast adenocarcinoma), HeLa (cervix carcinoma), HepG2 (human liver cancer), A549 (lung carcinoma), OKP-GS (renal cell carcinoma), and normal cells RPMI 1788 (B lymphocyte, the human cell line) was investigated.
(§3) Each in vitro experiment was performed at least in triplicate and the standard deviation of absorbance was less than 10% of the mean. For the in vitro assays, a stock solution (1% DMSO in the appropriate buffer with the tested compound diluted under sonication) was prepared from which several dilutions were made with the appropriate buffer.
(§4) Human cell lines were obtained from the Institute of Cytology, Russian Academy of Sciences. The cell lines studied were maintained in RPMI 1640 medium (AppliChem, Darmstadt, Germany) supplemented with 20% (HL-60, RPMI 1788) fetal calf serum (HyClone, Cramlington, UK), in DMEM (A 549) and Eagle’s MEM (AppliChem) (MCF7, HeLa) with 10% fetal calf serum (HyClone). Cells were cultivated at 37 °C in a humidified atmosphere of 5% CO2. Cellular sensitivities to synthesized compounds and standards were measured with the MTT assay. Cells were plated in triplicate in 96-well plates (10^5 cells/well for suspended cell cultures and 5 × 10^3 cells/well for monolayer cultures); on the same day (suspended cell cultures) or on the following day (monolayer cultures), compounds were added at the appropriate dilutions. Anti-proliferative activity was studied at concentrations 0.1–50.0 µM. The reference drugs were imatinib, sorafenib and nilotinib. Plates were incubated under standard conditions for 48 h. Thereafter, 10 μL MTT (Sigma) in phosphate-buffered saline (5 mg/mL) was added. The plates were incubated for an additional 4 h and 150 μL dimethylsulphoxide (DMSO) was added to dissolve the formazan crystals. The optical density was read on a HALO MPR-95 Microplate Reader (Dynamica Scientific Ltd., Melbourne, Victoria, Australia) at 570 nm. The antiproliferative effects were taken as degrees of inhibition of tumor cells (%). The average of three parallel measurements was calculated for each concentration of test compound. The degree of cell growth suppression was plotted as a function of the logarithm of the concentration. The half maximal inhibitory concentration (IC50) was determined graphically for active compounds.

HER2 = biological target: T7, HER2 (Homo sapiens, UniProt P04626); assay: Kinase Selectivity Profiling System TK-1 / ADP-Glo, HER2; type: biochemical
T7 construct: purchased Promega
Procedure: as §1

PDGFRβ = biological target: T8, PDGFRβ (Homo sapiens, UniProt P09619); assay: Kinase Selectivity Profiling System TK-1 / ADP-Glo, PDGFRβ; type: biochemical
T8 construct: purchased Promega
Procedure: as §1

A549 (lung carcinoma) = assay: MTT anti-proliferative assay, A549; type: cell-based; conditions: Homo sapiens, 48 h
Procedure: as §2, §3, §4

[1] = test system: K562 (chronic myelogenous leukemia); assay: MTT anti-proliferative assay, K562; type: cell-based; conditions: Homo sapiens, 48 h
Procedure: (§5) For the in vitro assays, a stock solution (1% DMSO in the appropriate buffer with the tested compound diluted under sonication) was prepared from which several dilutions were made with the appropriate buffer.
(§6) Human cell lines were obtained from the Institute of Cytology, Russian Academy of Sciences. […] Plates were incubated under standard conditions for 48 h.

[2] = test system: OKP-GS (renal cell carcinoma); assay: MTT anti-proliferative assay, OKP-GS; type: cell-based; conditions: Homo sapiens, 48 h
Procedure: as §2, §3, §4

[3] = test system: HL-60 (promyelocytic leukemia); assay: MTT anti-proliferative assay, HL-60; type: cell-based; conditions: Homo sapiens, 48 h
Procedure: as §5, §6

T6 sequence (P35968 20-1356): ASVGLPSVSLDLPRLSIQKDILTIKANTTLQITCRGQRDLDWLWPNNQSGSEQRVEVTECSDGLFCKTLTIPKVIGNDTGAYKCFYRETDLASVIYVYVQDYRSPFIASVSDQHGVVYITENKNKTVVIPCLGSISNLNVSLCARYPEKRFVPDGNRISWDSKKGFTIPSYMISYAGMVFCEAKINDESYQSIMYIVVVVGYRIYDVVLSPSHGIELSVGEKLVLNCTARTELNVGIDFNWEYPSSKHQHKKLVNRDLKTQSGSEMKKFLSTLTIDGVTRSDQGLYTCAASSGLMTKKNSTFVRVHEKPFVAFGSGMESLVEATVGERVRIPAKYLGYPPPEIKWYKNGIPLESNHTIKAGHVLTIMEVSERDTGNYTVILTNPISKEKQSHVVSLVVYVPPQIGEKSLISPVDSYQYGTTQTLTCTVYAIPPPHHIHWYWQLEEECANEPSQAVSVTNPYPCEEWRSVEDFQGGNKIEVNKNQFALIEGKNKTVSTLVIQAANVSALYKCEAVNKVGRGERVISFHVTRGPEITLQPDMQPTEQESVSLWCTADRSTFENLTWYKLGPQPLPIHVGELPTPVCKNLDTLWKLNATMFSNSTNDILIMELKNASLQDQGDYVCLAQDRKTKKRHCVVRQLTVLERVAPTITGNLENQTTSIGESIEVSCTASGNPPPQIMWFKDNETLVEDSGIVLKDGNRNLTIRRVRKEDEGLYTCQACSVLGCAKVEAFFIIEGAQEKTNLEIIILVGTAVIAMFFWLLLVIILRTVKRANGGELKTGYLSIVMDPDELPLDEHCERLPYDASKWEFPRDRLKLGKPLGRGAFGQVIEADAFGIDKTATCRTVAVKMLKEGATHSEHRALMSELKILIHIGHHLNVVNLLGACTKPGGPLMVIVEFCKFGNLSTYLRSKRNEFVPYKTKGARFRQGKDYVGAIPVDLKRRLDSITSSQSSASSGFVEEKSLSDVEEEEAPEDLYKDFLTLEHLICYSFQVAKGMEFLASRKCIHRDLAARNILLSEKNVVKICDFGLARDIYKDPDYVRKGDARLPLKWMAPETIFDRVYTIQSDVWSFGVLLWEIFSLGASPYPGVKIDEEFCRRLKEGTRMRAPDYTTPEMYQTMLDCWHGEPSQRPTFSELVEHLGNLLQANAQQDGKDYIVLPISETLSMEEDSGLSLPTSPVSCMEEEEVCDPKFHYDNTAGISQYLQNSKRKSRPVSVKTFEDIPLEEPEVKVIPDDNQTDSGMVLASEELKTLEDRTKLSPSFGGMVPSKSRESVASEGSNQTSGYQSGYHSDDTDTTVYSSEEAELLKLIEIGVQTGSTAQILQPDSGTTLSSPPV
T2 sequence (P08069 31-1367): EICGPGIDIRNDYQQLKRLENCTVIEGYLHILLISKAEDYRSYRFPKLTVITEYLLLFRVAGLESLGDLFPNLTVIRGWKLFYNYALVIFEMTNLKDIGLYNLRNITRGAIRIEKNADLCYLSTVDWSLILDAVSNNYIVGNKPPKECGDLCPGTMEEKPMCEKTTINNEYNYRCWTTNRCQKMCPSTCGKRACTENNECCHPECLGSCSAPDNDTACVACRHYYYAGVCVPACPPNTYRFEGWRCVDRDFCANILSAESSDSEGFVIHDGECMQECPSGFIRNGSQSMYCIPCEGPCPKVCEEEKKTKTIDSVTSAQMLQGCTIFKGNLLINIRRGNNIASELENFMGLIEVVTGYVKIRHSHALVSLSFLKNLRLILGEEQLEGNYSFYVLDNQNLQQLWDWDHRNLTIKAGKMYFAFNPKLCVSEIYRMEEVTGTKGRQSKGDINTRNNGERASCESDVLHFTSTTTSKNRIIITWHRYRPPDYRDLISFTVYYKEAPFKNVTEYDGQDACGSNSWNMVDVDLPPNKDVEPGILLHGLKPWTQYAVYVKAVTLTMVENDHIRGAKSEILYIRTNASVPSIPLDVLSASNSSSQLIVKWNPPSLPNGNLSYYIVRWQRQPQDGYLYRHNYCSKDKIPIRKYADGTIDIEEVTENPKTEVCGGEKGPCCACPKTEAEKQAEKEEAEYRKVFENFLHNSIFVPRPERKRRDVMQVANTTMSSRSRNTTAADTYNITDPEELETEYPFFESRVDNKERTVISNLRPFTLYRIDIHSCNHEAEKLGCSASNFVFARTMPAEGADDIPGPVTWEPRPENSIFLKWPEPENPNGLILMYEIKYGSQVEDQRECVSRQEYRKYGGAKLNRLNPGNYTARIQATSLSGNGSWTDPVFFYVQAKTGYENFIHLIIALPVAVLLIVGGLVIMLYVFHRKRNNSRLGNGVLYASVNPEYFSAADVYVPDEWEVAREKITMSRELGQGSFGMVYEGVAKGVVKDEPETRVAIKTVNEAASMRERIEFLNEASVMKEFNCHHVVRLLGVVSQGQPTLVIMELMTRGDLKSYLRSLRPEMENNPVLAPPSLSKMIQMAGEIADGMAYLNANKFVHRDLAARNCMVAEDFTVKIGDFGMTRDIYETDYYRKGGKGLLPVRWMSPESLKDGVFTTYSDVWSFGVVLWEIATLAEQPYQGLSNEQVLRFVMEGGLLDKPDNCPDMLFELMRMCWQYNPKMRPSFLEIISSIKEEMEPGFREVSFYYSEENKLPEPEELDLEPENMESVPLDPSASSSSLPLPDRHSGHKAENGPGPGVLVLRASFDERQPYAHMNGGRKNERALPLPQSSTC
T7 sequence (P04626 23-1255): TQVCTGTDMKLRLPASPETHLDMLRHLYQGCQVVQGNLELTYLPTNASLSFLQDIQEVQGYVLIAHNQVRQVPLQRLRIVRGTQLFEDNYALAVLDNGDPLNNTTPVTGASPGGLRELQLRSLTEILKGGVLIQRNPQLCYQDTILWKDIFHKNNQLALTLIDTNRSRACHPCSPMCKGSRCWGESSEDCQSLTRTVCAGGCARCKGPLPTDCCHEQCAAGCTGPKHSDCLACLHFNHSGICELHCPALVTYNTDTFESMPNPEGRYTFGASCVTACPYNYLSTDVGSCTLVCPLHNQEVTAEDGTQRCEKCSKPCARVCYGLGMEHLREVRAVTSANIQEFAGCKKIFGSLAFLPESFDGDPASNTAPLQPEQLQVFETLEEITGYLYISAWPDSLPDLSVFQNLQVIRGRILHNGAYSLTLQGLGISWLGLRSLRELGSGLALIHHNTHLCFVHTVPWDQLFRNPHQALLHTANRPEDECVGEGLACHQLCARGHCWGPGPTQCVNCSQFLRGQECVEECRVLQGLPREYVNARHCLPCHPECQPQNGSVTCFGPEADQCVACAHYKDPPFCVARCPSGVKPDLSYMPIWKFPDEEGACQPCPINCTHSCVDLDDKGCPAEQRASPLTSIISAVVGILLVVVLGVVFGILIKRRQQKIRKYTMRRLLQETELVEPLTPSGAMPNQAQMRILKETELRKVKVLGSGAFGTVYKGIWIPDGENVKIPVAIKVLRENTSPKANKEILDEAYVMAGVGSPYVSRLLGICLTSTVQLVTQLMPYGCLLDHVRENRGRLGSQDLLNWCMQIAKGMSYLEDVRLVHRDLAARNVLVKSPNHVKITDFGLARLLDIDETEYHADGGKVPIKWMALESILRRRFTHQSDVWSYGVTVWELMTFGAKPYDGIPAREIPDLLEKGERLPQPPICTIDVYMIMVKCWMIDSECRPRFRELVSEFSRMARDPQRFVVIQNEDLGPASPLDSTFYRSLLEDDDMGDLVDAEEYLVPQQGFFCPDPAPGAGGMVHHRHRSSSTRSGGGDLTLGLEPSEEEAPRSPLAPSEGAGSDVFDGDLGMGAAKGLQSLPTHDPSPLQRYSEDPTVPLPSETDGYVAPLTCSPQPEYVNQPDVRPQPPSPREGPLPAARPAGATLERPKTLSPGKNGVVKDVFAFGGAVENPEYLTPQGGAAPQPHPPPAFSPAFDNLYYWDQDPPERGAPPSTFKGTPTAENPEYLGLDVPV
T1 sequence (P00519 whole entry): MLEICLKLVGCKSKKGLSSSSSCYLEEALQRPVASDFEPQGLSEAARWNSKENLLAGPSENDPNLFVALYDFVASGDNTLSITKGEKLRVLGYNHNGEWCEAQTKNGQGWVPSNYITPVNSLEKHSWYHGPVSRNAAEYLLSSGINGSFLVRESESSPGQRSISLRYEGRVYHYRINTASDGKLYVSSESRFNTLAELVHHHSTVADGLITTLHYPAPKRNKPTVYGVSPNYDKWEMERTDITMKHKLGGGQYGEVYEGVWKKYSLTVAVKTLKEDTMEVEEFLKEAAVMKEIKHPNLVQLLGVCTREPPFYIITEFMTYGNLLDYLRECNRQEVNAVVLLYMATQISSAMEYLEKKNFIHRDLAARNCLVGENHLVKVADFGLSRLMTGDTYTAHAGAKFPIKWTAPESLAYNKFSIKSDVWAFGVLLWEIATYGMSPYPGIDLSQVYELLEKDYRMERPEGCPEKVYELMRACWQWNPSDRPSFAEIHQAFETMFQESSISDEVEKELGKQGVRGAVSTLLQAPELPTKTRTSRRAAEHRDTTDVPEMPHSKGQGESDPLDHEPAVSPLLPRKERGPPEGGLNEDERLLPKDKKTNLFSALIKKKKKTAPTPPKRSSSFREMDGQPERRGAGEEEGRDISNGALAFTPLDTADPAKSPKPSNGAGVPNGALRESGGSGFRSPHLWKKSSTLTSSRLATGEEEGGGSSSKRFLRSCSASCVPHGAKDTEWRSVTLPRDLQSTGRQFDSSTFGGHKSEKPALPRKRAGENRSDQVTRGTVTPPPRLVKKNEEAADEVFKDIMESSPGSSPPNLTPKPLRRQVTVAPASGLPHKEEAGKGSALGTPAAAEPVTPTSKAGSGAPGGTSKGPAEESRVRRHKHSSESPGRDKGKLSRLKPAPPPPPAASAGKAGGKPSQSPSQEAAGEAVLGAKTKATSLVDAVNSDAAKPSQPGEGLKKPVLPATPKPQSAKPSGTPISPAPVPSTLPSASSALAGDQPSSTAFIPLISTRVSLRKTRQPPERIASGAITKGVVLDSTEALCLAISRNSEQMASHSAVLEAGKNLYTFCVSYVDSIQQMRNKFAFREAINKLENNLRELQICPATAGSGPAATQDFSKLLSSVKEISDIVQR

| Structure (SMILES) | inhibition at 0.5 µM (Bcr–Abl1 kinase) [%] | inhibition at 10 µM (Bcr–Abl1 kinase) [%] | inhibition at 1 µM (IGF1R) [%] | inhibition at 1 µM (EGFR) [%] | inhibition at 1 µM (HER4) [%] | inhibition at 1 µM (InsR) [%] | inhibition at 1 µM (KDR (VEGFR-2)) [%] | IC50 (HeLa (cervix carcinoma)) [µM] | inhibition at 1 µM (HER2) [%] | inhibition at 1 µM (PDGFRβ) [%] | IC50 (A549 (lung carcinoma)) [µM] | IC50 [1] [µM] | IC50 [2] [µM] | IC50 [3] [µM] | melting point [°C] | Cells in G1 phase (OKP-GS cells; 5 μM) [%] | Cells in G2/M phase (OKP-GS cells; 5 μM) | Cells in S phase (OKP-GS cells; 5 μM) [%] | Cells in G2/M phase (OKP-GS cells; 20 μM) | Cells in S phase (OKP-GS cells; 20 μM) [%] | further results |
| --- | --- | --- | --- | --- | --- | --- | --- | --- | --- | --- | --- | --- | --- | --- | --- | --- | --- | --- | --- | --- | --- |
| COc1nc(Cl)nc2c1ncn2Cc1ccc(C(=O)Nc2cccc(C(F)(F)F)c2)cc1 [Compound 13, 4-((2-Chloro-6-methoxy-9H-purin-9-yl)methyl)-N-(3-(trifluoromethyl)phenyl)benzamide] | 24 | 21 | 0 | 29 | 0 | 0 | 30 | 15.4 ± 1.92 | 0 | 17 | 13 ± 0.67 | 29.7 ± 1.87 | 15.5 ± 2.27 | 26.1 ± 1.23 | 212 to 214 | – | – | – | – | – | – |
| COc1nc(Cl)nc2c1ncn2Cc1ccc(C(=O)Nc2cc(-n3cnc(C)c3)cc(C(F)(F)F)c2)cc1 [Compound 14, 4-((2-Chloro-6-methoxy-9H-purin-9-yl)methyl)-N-(3-(4-methyl-1H-imidazol-1-yl)-5-(trifluoromethyl)phenyl)benzamide] | 18 | 17 | 0 | 9 | 0 | 17 | 27 | 33.7 ± 7.49 | 8 | 20 | 20.1 ± 0.81 | 27.5 ± 1.19 | 10.6 ± 2.88 | 48.6 ± 3.02 | 160 to 162 | – | – | – | – | – | – |
| Nc1nc(Cl)nc2c1ncn2Cc1ccc(C(=O)Nc2cccc(C(F)(F)F)c2)cc1 [Compound 15, 4-((6-Amino-2-chloro-9H-purin-9-yl)methyl)-N-(3-(trifluoromethyl)phenyl)benzamide] | 17 | 28 | 0 | 0 | 0 | 0 | 13 | – | 0 | 33 | – | 30.6 ± 0.94 | – | 7.18 | 272 to 274 | – | – | – | – | – | – |
| CNC(=O)c1cc(Oc2ccc(NC(=O)Nc3ccc(Cl)c(C(F)(F)F)c3)cc2)ccn1 [Sorafenib, sorafenib, reference compound] | – | – | – | – | – | – | – | 6.82 ± 2.64 | – | – | 6.01 ± 1.27 | 2.9 ± 0.4 | 13.6 ± 1.71 | – | – | – | – | – | 19.7% | 17.3 | Cells in G1 phase (OKP-GS cells; 20 μM): 61.9% |

Stronger by IC50 [1], values ahead:

| inhibition at 0.5 µM (Bcr–Abl1 kinase) [%] | inhibition at 10 µM (Bcr–Abl1 kinase) [%] | inhibition at 1 µM (IGF1R) [%] | inhibition at 1 µM (EGFR) [%] | inhibition at 1 µM (HER4) [%] | inhibition at 1 µM (InsR) [%] | inhibition at 1 µM (KDR (VEGFR-2)) [%] | IC50 (HeLa (cervix carcinoma)) [µM] | inhibition at 1 µM (HER2) [%] | inhibition at 1 µM (PDGFRβ) [%] | IC50 (A549 (lung carcinoma)) [µM] | IC50 [1] [µM] | IC50 [2] [µM] | IC50 [3] [µM] | melting point [°C] | Structure (SMILES) | Cells in G1 phase (OKP-GS cells; 5 μM) [%] | Cells in G2/M phase (OKP-GS cells; 5 μM) | Cells in S phase (OKP-GS cells; 5 μM) [%] | Cells in G2/M phase (OKP-GS cells; 20 μM) | Cells in S phase (OKP-GS cells; 20 μM) [%] | further results |
| --- | --- | --- | --- | --- | --- | --- | --- | --- | --- | --- | --- | --- | --- | --- | --- | --- | --- | --- | --- | --- | --- |
| 36 | 43 | 0 | 9 | 0 | 0 | 16 | 6.05 ± 1.03 | 11 | 39 | 18 ± 0.73 | 2.53 ± 0.77 | 24.8 ± 3.25 | 1.52 ± 0.66 | – | Cc1cn(-c2cc(NC(=O)c3ccc(Cn4cnc5c(Cl)nc(Cl)nc54)cc3)cc(C(F)(F)F)c2)cn1 [Compound 10, 4-((2,6-Dichloro-9H-purin-9-yl)methyl)-N-(3-(4-methyl-1H-imidazol-1-yl)-5-(trifluoromethyl)-phenyl)benzamide] | 56.9 | 24.3% | 16.8 | 25.3% | 19.3 | Cells in G1 phase (OKP-GS cells; 10 μM): 53.3%; Cells in G2/M phase (OKP-GS cells; 10 μM): 24.2%; Cells in S phase (OKP-GS cells; 10 μM): 21.5% |
| 24 | 16 | 0 | 6 | 0 | 6 | 11 | 6.93 ± 1.18 | 22 to 26 | 36 to 45 | 26.9 ± 0.64 | 2.27 ± 0.81 | 4.56 ± 1.73 | 1.42 ± 0.54 | – | O=C(Nc1cccc(C(F)(F)F)c1)c1ccc(Cn2cnc3c(Cl)nc(Cl)nc32)cc1 [Compound 7, 4-((2,6-Dichloro-9H-purin-9-yl)methyl)-N-(3-(trifluoromethyl)phenyl)benzamide] | 60.9 | 23.53% and 23.5% | 14.2 | 29.94% and 29.9% | 17.4 | Cells in G1 phase (OKP-GS cells; 10 μM): 55.5%; Cells in G2/M phase (OKP-GS cells; 10 μM): 26.02% and 26.0%; Cells in S phase (OKP-GS cells; 10 μM): 17.7%; Cells in G1 phase (OKP-GS cells; 20 μM): 51.2%; % Inhibition at 1 µM, HER2 (HER2): 22%; % Inhibition at 1 µM, PDGFRβ (PDGFRβ): 30% |
